Entries after “also recorded” stand apart in the source; their conditions may differ.
Columns and labels:
Type in all cases: cell-based, human
DUCaP cells = assay: 2D cell proliferation assay (CellTiter-Glo); settings: 10% FCS-containing growth medium, 5 days, single agent or combination
Description: (§1) The following method was used to determine the inhibitory effect of IGF ligand-neutralizing mAbs and androgen signaling inhibitors on the growth of prostate cancer cell lines. Assays were performed in cell growth medium containing 10% serum.
(§2) Adherent cells were detached with trypsin/EDTA solution (GIBCO, #043-9031 FU), resuspended in growth medium, centrifuged, resuspended in assay medium (supplemented with 10% heat inactivated FCS and 2 mM L-glutamine) and diluted to 5,000-40,000 cells per mL. 100 μL/well cell suspension was added to each well of a sterile flat-bottom white 96-well plate (PerkinElmer, #6005280) and plates were incubated overnight in a humidified incubator set at +37° C. and 5% CO2. On the next day supernatants were aspirated and 35 μL/well assay medium was added to all wells.
(§3) Serial dilutions of IGF mAb_1 and mAb_2 (1 μM highest concentration), MDV-3100 (10 μM highest concentration), abiraterone acetate (100 μM highest concentration) were prepared on a separate plate in assay medium (no growth factors or hormones supplemented). All agents were tested as single agents or in combination. All samples were tested in triplicate wells (100 μL/well assay). Plates were incubated for 5 days in a humidified incubator at +37° C. and 5% CO2. After this incubation period, CellTiter-Glo buffer, substrate and test plates were equilibrated to RT. CellTiter-Glo is a bioluminescent assay (Promega, #G7571) designed to determine the number of viable cells in culture, in which the generation of a luminescent signal is proportional to the amount of ATP present in cells. 100 μL of freshly mixed CellTiter-Glo reagent was added to each well. After 2 min on an orbital shaker (MTS 2/4, IKA) and 10 min incubation at RT, luminescence was recorded (luminescence reader (Genios Pro, Tecan or Victor X4, Perkin Elmer), integration time 1 sec).

MDA PCa 2b cells = assay: 2D cell proliferation assay (CellTiter-Glo); settings: 10% FCS-containing growth medium, 5 days, single agent or combination
Description: as §1, §2, §3

VCaP cells [1] = assay: 2D cell proliferation assay (CellTiter-Glo); settings: 10% FCS-containing growth medium, 5 days, single agent or combination
Description: as §1, §2, §3

VCaP cells [2] = assay: 3D soft agar cell proliferation assay; settings: single agent or combination
Description: IGF mAb_2 was used for the treatment of VCaP cells in FIG. 2B. FIG. 2C (IGF mAb_1) and FIG. 2D (IGF mAb_2) show the results of MDA PCa 2b cells. […] In a 3D soft agar cell proliferation assay (FIG. 2G), VCaP cells were treated with abiraterone acetate and IGF mAb_2.

VCaP cells [3] = assay: Thymidine incorporation assay; settings: 96 hours, 10 μM MDV-3100 and/or 1 μM IGF mAb_1, compared to untreated controls
Description: VCaP cells were treated with 1 μM of IGF mAb_1 and 10 μM of MDV-3100 and the combination of both agents and incubated as triplicates in flat-bottom 96-well plates for 96 hours at a density of 5×10^4 cells per well, in the absence of R1881. For the last 24 hours of incubation, ^3H-thymidine (0.4 μCi/well; PerkinElmer, NET355001 MC) was added. Afterwards, the plates were frozen and incubated at −20° C. for 24 h. For harvesting, the plates were thawed and 40 μL Trypsin was added to each well to detach the cell fragments. The suspension was transferred to filter plates. The plates were then washed three times with distilled water and dried at 60° C. for 3 h. 25 μL per well Microscint were added and the proliferation rate was determined by measuring thymidine incorporation (CPM; counts per minute) using a liquid scintillation counter (1450 Microbeta Wallac Trilux, Perkin-Elmer).

VCaP cells [4] = assay: Assessment of caspase 3 activity (apoptosis induction); settings: 10 μM MDV-3100 and/or 1 μM mAb, up to 96 hours
Description: To acquire live cell images of cells undergoing caspase-3/7 mediated apoptosis upon treatment with different concentrations of MDV-3100, IGF mAb_1, and the combination of both agents, the CellPlayer™ 96-Well Kinetic Caspase-3/7 Reagent (Essen BioScience; #4440) was used. 50000 VCaP cells/100 μl/well were seeded and treated on the next day with the respective concentrations of both agents in growth medium in the absence of R1881. The Caspase-3/7 reagent was diluted to a final concentration of 5 μM in 100 μl per well of growth medium and added to the medium. The plate was placed within a microplate tray into the IncuCyte™ 2011A and 3 images per well were acquired every 4 hours for 7 days using the phase contrast and fluorescence channels.

VCaP cells [5] = assay: Cell cycle analysis using flow cytometry (propidium iodide)
Description: 4×10^5 VCaP cells were treated with 1 μM of IGF mAb_1 and 10 μM of MDV-3100, and the combination of both agents, and incubated in 6-well plates at 37° C. for 24 h, 48 h and 72 h. Subsequently, the supernatant was transferred to FACS tubes, adherent cells were detached with trypsin and collected in the respective FACS tubes. After centrifugation, the medium was discarded and the cell pellet was fixed in ice-cold 70% ethanol for a minimum of 2 h at 4° C. After removing the ethanol entirely, fixed cells were stained with propidium iodide (10 μg/ml; Sigma; P4864-10 mL) in a hypotonic buffer solution (0.1% sodium citrate, 0.1% (v/v) triton X-100, 100 μg/ml DNase-free RNase A) and incubated in the dark at room temperature for 30 minutes. Cells were analyzed using the Becton Dickinson FACS Canto II Flow cytometer and data was evaluated with the FACS Diva software.

[6] = system: IGF-1R, AR, PTEN levels and AKT-Ser473 phosphorylation in VCaP, MDA PCa 2b and DUCaP cells; assay: Western blot protein analysis after 24 hours of treatment; settings: 24 hours treatment
Description: One×10^6 and 4×10^6 cells were plated in 6-well plates and 10 cm dishes, respectively, in medium containing 10% heat-inactivated FCS and after over night incubation the cells were treated with 1 μM of MDV-3100 and 100 nM of IGF mAb_1 or a combination of antibody and AR signaling inhibitor. After 24 hours the cells were lyzed on the plates, total protein was isolated and protein concentration was determined by Bradford assay. Cell lysates were snap frozen and stored at −80° C.
(§4) Western blotting was performed loading 30-50 μg of total protein lysates on a 4-12% Bis-Tris PAG (Bio Rad) and blotting with the Bio Rad trans-Blot® Turbo system using a PVDF membrane. […] Cell cycle regulators and markers of proliferation and apoptosis were analyzed using the following antibodies: p21 Waf1/Cip1 (12D1; #2947, Cell Signaling; 1:1000), CDK2 (78B2; #2546, Cell Signaling; 1:1000), Cyclin E (C-19; sc-198, Santa Cruz; 1:1000), PCNA (#2586, Cell Signaling; 1:2000), and PARP (#9542, Cell Signaling; 1:1000).
(§5) Antibody dilutions were prepared in 5% BSA or 5% non-fat dry milk in TBS-0.5% Tween20 (TBS-T). Following washes in TBS-T membranes were incubated with a polyclonal HRP-conjugated goat anti-rabbit secondary antibody (DAKO, #P0448) for 1 hour and after further washes in TBS-T antibody reactivity was detected by means of ECL/Super ECL (GE Healthcare) and exposure on ImageQuant LAS4000. […]

[7] = system: AKT phosphorylation, PARP cleavage, p21, CDK2, Cyclin E, PCNA in VCaP cells; assay: Western blot time course of AKT phosphorylation, apoptosis and cell cycle regulators
Description: One×10^6 and 4×10^6 cells were plated in 6-well plates and 10 cm dishes, respectively, in medium containing 10% […] and AR signaling inhibitor. […] Cell lysates were snap frozen and stored at −80° C.
as §4, §5

VCaP cells [8] = assay: Analysis of cellular doubling time; settings: 10 μM MDV-3100, compared to untreated controls
Description: 3×10^5 cells/well VCaP cells were seeded in 2 mL cell culture medium per well. 24 hrs post seeding the cell culture medium was removed and replaced with DMEM+10% FCS without R1881. 24 hr following the medium change the pre-treatment wells were harvested and counted with the Beckman Coulter™ Vi-CELL XR 2.03, and 10 μM of MDV-3100 was added to the remaining cells. Four times every 24 hr VCaP cell number was determined in 3 wells for each time point. The mean value was calculated from these triplicates. To determine the generation time, following formula is used: […]

Compound	effect on 2D cell proliferation (in words) (DUCaP cells)	effect on 2D cell proliferation (in words) (MDA PCa 2b cells)	effect on 2D cell proliferation (in words) (VCaP cells [1])	effect on 3D cell proliferation (in words) (VCaP cells [2])	reduction of proliferative activity (thymidine incorporation) (VCaP cells [3])	induction of caspase 3 activity / apoptosis (in words) (VCaP cells [4])	G1/G0 population (VCaP cells [5]; 10 μM MDV-3100, compared to untreated controls)	sub-G1 apoptotic cell population (VCaP cells [5]; 24 h, 48 h and 72 h, 10 μM MDV-3100 and/or 1 μM mAb)	AR protein levels [6]	IGF-1R levels [6]	p21 levels ([7]; 10 μM MDV-3100, at 8 and 24 hours)	PARP cleavage ([7]; 10 μM MDV-3100 and/or 1 μM IGF mAb_1, 8 h, 24 h, 48 h and 72 h)	cellular doubling time (generation time) (VCaP cells [8])
CC(=O)O[C@H]1CC[C@@]2(C)C(=CC[C@@H]3[C@@H]2CC[C@]2(C)C(c4cccnc4)=CC[C@@H]32)C1 [abiraterone acetate]	inhibition of cell proliferation at higher concentrations	inhibition of cell proliferation at higher concentrations	inhibition of cell proliferation at higher concentrations	inhibition of cell proliferation at higher concentrations	–	–	–	–	–	–	–	–	–
CNC(=O)c1ccc(N2C(=S)N(c3ccc(C#N)c(C(F)(F)F)c3)C(=O)C2(C)C)cc1F [MDV-3100, 4-{3-[4-cyano-3-(trifluoromethyl)phenyl]-5,5-dimethyl-4-oxo-2-sulfanylideneimidazolidin-1-yl}-2-fluoro-N-methylbenzamide]	inhibition of cell proliferation	inhibition of cell proliferation	inhibition of cell proliferation	–	approximately 50%	did not induce caspase 3 activity	increased	did not induce; also recorded: does not change	slightly increased	slightly decreased	increased	did not induce	prolonged cellular doubling time

From US10377828B2, “Combination therapy for neoplasia treatment” (Boehringer Ingelheim International GmbH, priority 2013, dated 2019)
